Experimental data as given in patent US20220064127A1, “PLATELET AGGREGATION INHIBITOR, PREPARATION AND USES THEREOF” (SHENYANG HINEWY PHARMACEUTICAL TECHNOLOGY CO., LTD., priority 2020, published 2022).
Like-named read-outs stand apart in the source and are kept apart here.

Test system: ADP-Induced Platelet Aggregation
Test: Inhibition of ADP-induced platelet aggregation in rabbit platelet-rich plasma (microplate method)
Assay type: cell-based
Settings: rabbit PRP, inducer ADP; for IC50: absorbance 655 nm, read-out: IC50 (Mean ± SE), ADP-induced platelet aggregation; for inhibition at 30 µM: read-out: Inhibition rate of target compounds on platelet aggregation at 30 μM
Method: Example 62 Investigation on Inhibition of ADP-Induced Platelet Aggregation in Rabbit
A blood sample was collected from ear vein of a healthy male rabbit, added with 3.8% sodium citrate for anticoagulation and then centrifuged at 800 r/min for 10 min to prepare platelet-rich plasma (PRP) and at 3,000 r/min for 10 min to prepare platelet-poor plasma (PPP). The investigation on the plasma should be performed within 0.5-3 h after the preparation.
2. Determination of Platelet Aggregation by Microplate Method
The drugs to be tested were weighed and added with an appropriate amount of DMSO to prepare a series of 10 mM stock solutions, which were respectively diluted to prepare 10× stock solutions with normal saline for further use.
Several wells of a microplate were selected as test wells, which were added with 135 μL of PRP and then respectively added with 15 μL of the 10× stock solutions. A well in which 135 μL of PRP and 15 μL of normal saline were added was used as the vehicle control, and a well in which 135 μL of PPP and 15 μL of normal saline were added was used as the blank control. Duplicate wells were set for each test well. The plate was shaken, incubated at 37° C. for 5 min, and then measured for A0 at 655 nm. Subsequently, the microplate was added with 15 μL of an inducer […] (ADP) working solution (25 μmol/L) in each well, incubated at 37° C. under shaking and measured at 655 nm for A1, where the incubation time was determined according to the time in the pre-experiment when the maximum aggregation appeared. The platelet aggregation rate (AR) and platelet aggregation inhibition rate (AIR) were calculated according to the following formulas:
AR=(1−ARtest sample/ARcontrol)

[1] = Oryctolagus cuniculus, Platelet

| Compound | IC50 [1] | also measured |
| --- | --- | --- |
| CCOC(=O)c1c(C)nc(-c2ccc(OCC(C)C)c(C#N)c2)n1O [LY-7a, ethyl 2-(3-cyano-4-isobutyloxy)phenyl-1-hydroxy-4-methyl-1H-imidazole-5-carboxylate] |  | IC50: 16.8 ± 0.874 µM |
| CCOC(=O)c1c(C)nc(-c2ccc(OCc3ccccc3)c(C#N)c2)n1O [LY-7b, ethyl 2-(3-cyano-4-benzyloxy)phenyl-1-hydroxy-4-methyl-1H-imidazole-5-carboxylate] | 19 ± 0.317 µM |  |
| CCOC(=O)c1c(C)nc(-c2ccc(OCC(C)C)c(C#N)c2)n1OC(C)=O [LY-8a, ethyl 1-acetoxy-2-(3-cyano-4-isobutoxyphenyl)-4-methyl-1H-imidazole-5-carboxylate] | 5.214 ± 0.0152 µM |  |
| CCOC(=O)c1c(C)nc(-c2ccc(O)c(C#N)c2)n1O [LY-8b, ethyl 2-(3-cyano-4-hydroxyphenyl)-1-hydroxy-4-methyl-1H-imidazole-5-carboxylate] | 18.3 ± 1.03 µM |  |
| CCOC(=O)c1c(C)nc(-c2cccc(C#N)c2)n1O [LY-10, ethyl 2-(3-cyanophenyl)-1-hydroxy-4-methyl-1H-imidazole-5-carboxylate] | 17.6 ± 0.952 µM |  |
| Cc1nc(-c2cccc(C#N)c2)n(O)c1C(=O)O [LY-11, 2-(3-cyanophenyl)-1-hydroxy-4-methyl-1H-imidazole-5-carboxylic acid] | 7.865 ± 0.0365 µM |  |
| CCOC(=O)c1c(C)nc(-c2cccc(-c3nnn[nH]3)c2)n1O [LY-13, ethyl 2-[3-(1H-tetrazol-5-yl)phenyl]-1-hydroxy-4-methyl-1H-imidazole-5-carboxylate] | 21.9 ± 0.865 µM |  |
| CCOC(=O)c1c(C)nc(-c2cccc(-c3noc(=O)[nH]3)c2)n1O [LY-15, ethyl 1-hydroxy-4-methyl-2-[3-(5-oxo-4,5-dihydro-1,2,4-oxadiazol-3-yl)phenyl]-1H-imidazole-5-carboxylate] | 22.1 ± 0.299 µM |  |
| CCOC(=O)c1c(-c2ccccc2)nc(-c2cccc(C#N)c2)n1O [LY-16, ethyl 2-(3-cyanophenyl)-1-hydroxy-4-phenyl-1H-imidazole-5-carboxylate] | 19.87 ± 0.126 µM |  |
| CCOC(=O)c1c(C)nc(-c2ccccc2C#N)n1OC [LY-19, ethyl 4-methyl-2-(2-cyanophenyl)-1-methoxy-1H-imidazole-5-carboxylate] | 14.86 ± 0.0568 µM |  |
| CCOC(=O)c1c(C)nc(-c2ccc(C#N)cc2)n1OC [LY-22, ethyl 4-methyl-2-(4-cyanophenyl)-1-methoxy-1H-imidazole-5-carboxylate] | 13.4 ± 1.03 µM |  |
| CCOC(=O)c1c(C)nc(-c2ccccc2)n1OC [LY-25, ethyl 4-methyl-2-phenyl-1-methoxy-1H-imidazole-5-carboxylate] |  | inhibition at 30 µM [1]: 24.1% |
| CCOC(=O)c1c(C)nc(-c2cccc(C#N)c2)n1OC [LY-26a, ethyl 2-(3-cyanophenyl)-1-methoxy-4-methyl-1H-imidazole-5-carboxylate] | 9.13 ± 0.346 µM |  |
| CCOC(=O)c1c(C)nc(-c2cccc(C#N)c2)n1OCC [LY-26b, ethyl 2-(3-cyanophenyl)-1-ethoxy-4-methyl-1H-imidazole-5-carboxylate] | 16.5 ± 1.07 µM |  |
| CCOC(=O)c1c(C)nc(-c2cccc(C#N)c2)n1OC(C)C [LY-26c, ethyl 2-(3-cyanophenyl)-1-isopropoxy-4-methyl-1H-imidazole-5-carboxylate] | 6.74 ± 0.326 µM |  |
| C=CCOn1c(-c2cccc(C#N)c2)nc(C)c1C(=O)OCC [LY-26d, ethyl 1-(allyloxy)-2-(3-cyanophenyl)-4-methyl-1H-imidazole-5-carboxylate] | 5.856 ± 0.0165 µM |  |
| CCOCCOn1c(-c2cccc(C#N)c2)nc(C)c1C(=O)OCC [LY-26e, ethyl 2-(3-cyanophenyl)-1-(2-ethoxyethoxy)-4-methyl-1H-imidazole-5-carboxylate] | 6.25 ± 0.21 µM |  |
| CCOC(=O)c1c(C)nc(-c2cccc(C#N)c2)n1OCCCO [LY-26f, ethyl 2-(3-cyanophenyl)-1-(3-hydroxypropoxy)-4-methyl-1H-imidazole-5-carboxylate] | 11.4 ± 0.213 µM |  |
| CCOC(=O)COn1c(-c2cccc(C#N)c2)nc(C)c1C(=O)OCC [LY-26g, ethyl 2-(3-cyanophenyl)-1-(2-ethoxy-2-oxoethoxy)-4-methyl-1H-imidazole-5-carboxylate] | 6.8 ± 0.152 µM |  |
| CCOC(=O)c1c(C)nc(-c2cccc(C#N)c2)n1OCC(N)=O [LY-26h, ethyl 1-(2-amino-2-oxoethoxy)-2-(3-cyanophenyl)-4-methyl-1H-imidazole-5-carboxylate] |  | inhibition at 30 µM [1]: 18.9% |

| Compound | IC50 [1] | also measured |
| --- | --- | --- |
| CCOC(=O)c1c(C)nc(-c2cccc(C#N)c2)n1OCCC(=O)O [LY-26i, 3-{[2-(3-cyanophenyl)-5-(ethoxycarbonyl)-4-methyl-1H-imidazol-1-yl]oxy}propionic acid] |  | inhibition at 30 µM [1]: 24.4% |
| CCOC(=O)c1c(C)nc(-c2cccc(C#N)c2)n1OCc1ccncc1 [LY-26j, ethyl 2-(3-cyanophenyl)-4-methyl-1-(pyridin-4-methoxy)-1H-imidazole-5-carboxylate] | 6.196 ± 0.0526 µM |  |
| CCOC(=O)c1c(C)nc(-c2cccc(C#N)c2)n1OCc1ccccc1 [LY-26k, ethyl 1-(benzyloxy)-2-(3-cyanophenyl)-4-methyl-1H-imidazole-5-carboxylate] | 5.93 ± 0.265 µM |  |
| CCOC(=O)c1c(C)nc(-c2cccc(C#N)c2)n1OCc1ccccc1F [LY-26l, ethyl 2-(3-cyanophenyl)-1-[(2-fluorobenzyl)oxy]-4-methyl-1H-imidazole-5-carboxylate] | 5.88 ± 0.196 µM |  |
| CCOC(=O)c1c(C)nc(-c2cccc(C#N)c2)n1OCc1cccc(F)c1 [LY-26m, ethyl 2-(3-cyanophenyl)-1-[(3-fluorobenzyl)oxy]-4-methyl-1H-imidazole-5-carboxylate] | 22.4 ± 1.36 µM |  |
| CCOC(=O)c1c(C)nc(-c2cccc(C#N)c2)n1OCc1ccc(F)cc1 [LY-26n, ethyl 2-(3-cyanophenyl)-1-[(4-fluorobenzyl)oxy]-4-methyl-1H-imidazole-5-carboxylate] | 5.88 ± 0.196 µM |  |
| CCOC(=O)c1c(C)nc(-c2cccc(C#N)c2)n1OCc1ccccc1Cl [LY-26o, ethyl 1-[(2-chlorobenzyl)oxy]-2-(3-cyanophenyl)-4-methyl-1H-imidazole-5-carboxylate] | 8.71 ± 0.242 µM |  |
| CCOC(=O)c1c(C)nc(-c2cccc(C#N)c2)n1OCc1cccc(Cl)c1 [LY-26p, ethyl 1-[(3-chlorobenzyl)oxy]-2-(3-cyanophenyl)-4-methyl-1H-imidazole-5-carboxylate] | 19.4 ± 0.355 µM |  |
| CCOC(=O)c1c(C)nc(-c2cccc(C#N)c2)n1OCc1ccc(Cl)cc1 [LY-26q, ethyl 1-[(4-chlorobenzyl)oxy]-2-(3-cyanophenyl)-4-methyl-1H-imidazole-5-carboxylate] | 6.83 ± 0.265 µM |  |
| CCOC(=O)c1c(C)nc(-c2cccc(C#N)c2)n1OCc1ccc(Br)cc1 [LY-26r, ethyl 1-[(4-bromobenzyl)oxy]-2-(3-cyanophenyl)-4-methyl-1H-imidazole-5-carboxylate] | 24.6 ± 0.895 µM |  |
| CCOC(=O)c1c(C)nc(-c2cccc(C#N)c2)n1OCc1ccc(C)cc1 [LY-26s, ethyl 2-(3-cyanophenyl)-4-methyl-1-[(4-methylbenzyl)oxy]-1H-imidazole-5-carboxylate] | 6.31 ± 0.399 µM |  |
| CCOC(=O)c1c(C)nc(-c2cccc(C#N)c2)n1OCc1ccc(OC)cc1 [LY-26t, ethyl 2-(3-cyanophenyl)-1-[(4-methoxybenzyl)oxy]-4-methyl-1H-imidazole-5-carboxylate] | 6.83 ± 0.0856 µM |  |
| CCOC(=O)c1c(C)nc(-c2cccc(C#N)c2)n1OCc1ccc(C(=O)OC)cc1 [LY-26u, ethyl 2-(3-cyanophenyl)-1-{[4-(methoxycarbonyl)benzyl]oxy}-4-methyl-1H-imidazole-5-carboxylate] | 9.47 ± 0.856 µM |  |
| CCOC(=O)c1c(C)nc(-c2cccc(C#N)c2)n1OCc1ccc([N+](=O)[O-])cc1 [LY-26v, ethyl 2-(3-cyanophenyl)-4-methyl-1-[(4-nitrobenzyl)oxy]-1H-imidazole-5-carboxylate] | 8.75 ± 0.159 µM |  |
| CCOC(=O)c1c(C)nc(-c2cccc(C#N)c2)n1OCc1ccccc1C#N [LY-26w, ethyl 1-[(2-cyanobenzyl)oxy]-2-(3-cyanophenyl)-4-methyl-1H-imidazole-5-carboxylate] | 9.38 ± 0.565 µM |  |
| CCOC(=O)c1c(C)nc(-c2cccc(C#N)c2)n1OCc1cccc(C#N)c1 [LY-26x, ethyl 1-[(3-cyanobenzyl)oxy]-2-(3-cyanophenyl)-4-methyl-1H-imidazole-5-carboxylate] |  | inhibition at 30 µM [1]: 3.21% |
| COn1c(-c2cccc(C#N)c2)nc(C)c1C(=O)O [LY-27a, 4-methyl-2-(3-cyanophenyl)-1-methoxy-1H-imidazole-5-carboxylic acid] | 7.99 ± 0.217 µM |  |
| CCOn1c(-c2cccc(C#N)c2)nc(C)c1C(=O)O [LY-27b, 4-methyl-2-(3-cyanophenyl)-1-ethoxy-1H-imidazole-5-carboxylic acid] | 9.71 ± 0.557 µM |  |
| C=CCOn1c(-c2cccc(C#N)c2)nc(C)c1C(=O)O [LY-27d, 4-methyl-2-(3-cyanophenyl)-1-allyloxy-1H-imidazole-5-carboxylic acid] | 6.35 ± 0.469 µM |  |
| Cc1nc(-c2cccc(C#N)c2)n(OCc2ccccc2)c1C(=O)O [LY-27k, 4-methyl-2-(3-cyanophenyl)-1-benzyloxy-1H-imidazole-5-carboxylic acid] | 6.24 ± 0.324 µM |  |
